Data published in patent US12226386B2, “Compositions and methods for treating biofilms” (The Regents of the University of California, priority 2018, dated 2025).
Where two headings read alike, the source gives them in different places.

How the values were obtained:
[1] = tested on: S. aureus (MRSA) biofilms; assay: in vitro sustained inhibition biofilm assay, bacterial; format: cell-based, Staphylococcus aureus; conditions: for activation at 1 %: Staphylococcus aureus, MRSA, 24 h, read-out: Promote B Biofilm
Procedure: (§1) In vitro biofilm formation was tested using two assays, sustained inhibition and disruption. Both assays assess biofilm formed on polystyrene plates. The first, tests the effects of amino acid solution on a developing biofilm, while the latter tests the effects of the solution on a pre-formed mature biofilm, both compared to media without supplemented amino acids.
(§2) Other amino acids in the blood of animals could combat bacterial and fungal biofilm and therefore may be useful in treating these bacterial and fungal infections that would lie on the external surfaces of infected animals such as humans and could also be used to combat these pathogens on instruments and surfaces that need to be treated. Two types of biofilm assays were performed: a sustained inhibition assay and a disruption assay. The sustained inhibition assay assessed the compound's ability to prevent biofilm development throughout all stages of biofilm formation, while the disruption assay assessed the compound's ability to break up an existing mature biofilm.
(§3) For fungal biofilm assays, all solutions were prepared in RPMI 1640 medium. All bacterial biofilm solutions were prepared in Tryptic Soy Broth (TSB), supplemented with 1% glucose (henceforth referred to as TSB-G). All subsequent procedures were performed in a manner that maintained sterility. A solution of each amino acid to be tested was prepared in weight to volume concentrations ranging from 0.1-5.0%. Amino acids were also tested in combinations. Compound solutions were homogenized with gentle agitation in the dark (4° C., 24 hours) before use.
(§4) Bacterial strains were streaked on Blood Agar plates (5% sheep blood in Tryptic Soy Agar) and incubated at 37° C. for 24 hours. A single colony from each strain to be tested was inoculated in a TSB broth and grown for 12 hours, at 37° C. shaking at 225 rpm. For the bacterial biofilm inhibition assays, 1 μL of saturated overnight cell culture was added to either 80 μL of TSB-G, or TSB-G supplemented with the amino acid compound solution to be tested, in a 384-well plate. The cells were allowed to adhere to the plate for 60 minutes at 37° C. without shaking. The media was carefully aspirated and 80 μL of TSB-G, or TSB-G supplemented with the amino acid compound solution was added to the plate. The plate was further incubated for 24 hours at 37° C. without shaking. Media was carefully aspirated and the biofilm was measured by optical density at 600 nm. Eight or twelve replicates were performed for each tested condition and the reported values are normalized to the control (TSB-G media only). For the bacterial biofilm disruption assays, 80 μL of TSB-G was added to the plate, along with 1 μL of overnight cell culture. The cells were allowed to adhere to the plate for 60 minutes at 37° C. with no shaking. The media was carefully aspirated and 80 μL of TSB-G was added to the plate. The plate was further incubated for 24 hours at 37° C. with no shaking. Media was carefully aspirated from the mature biofilm and 80 μL of TSB-G, or TSB-G supplemented with the amino acid to be tested, was gently added to the plate. The plate was further incubated for 24 hours at 37° C. without shaking. Media was aspirated and the biofilm was measured by optical density at 600 nm. Twelve replicates were performed for each tested condition and the reported values are normalized to the control (TSB-G media only).
For inhibition assay, 1 μl of overnight cell culture was added to either 80 μl of TSB-G, or TSB-G supplemented with the amino acid to be tested, in a 384-well plate. The cells were allowed to adhere to the plate for 60 minutes at 37° C. with no shaking. The media was carefully aspirated and 80 μl of TSB-G, or TSB-G supplemented with amino acid was added to the plate. The plate was further incubated for 24 hours at 37° C. with no shaking. Media was carefully aspirated and the biofilm was measured by optical density at 600 nm. […]

[2] = tested on: S. aureus (MRSA) biofilms; assay: in vitro biofilm disruption assay, bacterial; format: cell-based; conditions: Staphylococcus aureus, 24 h
Procedure: as §1, §2, §3, §4
For disruption assay, 80 μl of TSB-G was added to the plate, along with 1 μl of overnight cell culture. The cells were allowed to adhere to the plate for 60 minutes at 37° C. with no shaking. The media was carefully aspirated and 80 μl of TSB-G was added to the plate. The plate was further incubated for 24 hours at 37° C. with no shaking. Media was carefully aspirated from the mature biofilm and 80 μl of TSB-G, or TSB-G supplemented with the amino acid to be tested, was added drop wise to the plate. The plate was further incubated for 24 hours at 37° C. with no shaking. […]

[3] = tested on: bacterial biofilms (MRSA); assay: biofilm assays (sustained inhibition and/or disruption), bacterial; format: cell-based, Staphylococcus aureus; conditions: for effect on MRSA biofilms in inhibition and disruption assays: Tables 4 and 5; for anti-biofilm properties against bacterial biofilms: administered individually at about 0.1 to about 5.0% weight to volume; for anti-biofilm properties against bacterial biofilms / effect on bacterial biofilm growth: in at least one of the two biofilm assays
Procedure: as §2, §3, §4

[4] = tested on: fungal biofilms (C. albicans); assay: biofilm assays (sustained inhibition and/or disruption), fungal; format: cell-based, Candida albicans
Procedure: Other amino acids in the blood of animals could combat bacterial and fungal biofilm and therefore may be useful in treating these bacterial and fungal infections that would lie on the external surfaces of infected animals such as humans and could also be used to combat these pathogens on instruments and surfaces that need to be treated. Two types of biofilm assays were performed: a sustained inhibition assay and a disruption assay. The sustained inhibition assay assessed the compound's ability to prevent biofilm development throughout all stages of biofilm formation, while the disruption assay assessed the compound's ability to break up an existing mature biofilm. For fungal biofilm assays, all solutions were prepared in RPMI 1640 medium. All bacterial biofilm solutions were prepared in Tryptic Soy Broth (TSB), supplemented with 1% glucose (henceforth referred to as TSB-G). All subsequent procedures were performed in a manner that maintained sterility. […] Amino acids were also tested in combinations. Compound solutions were homogenized with gentle agitation in the dark (4° C., 24 hours) before use. Fungal strains were streaked on Yeast Peptone Dextrose (YPD) agar plates and incubated at 30° C. for 48 hours. A single colony from each strain to be tested was inoculated into YPD broth and grown for 12 hours, at 30° C., shaking at 225 rpm. For the fungal biofilm inhibition assay, 1 μl of saturated overnight cell culture was added to either 80 μL of RPMI-1640 or RPMI-1640 supplemented with the amino acid compound solution to be tested, in a 384-well plate. The cells were allowed to adhere to the plate for 90 minutes at 37° C. shaking at 350 rpm. Loosely bound cells were washed once with phosphate buffered saline (PBS) and 80 μl of RPMI-1640, or RPMI-1640 supplemented with the amino acid compound solution was added to the plate. The plate was further incubated for 24 hours at 37° C. shaking at 350 rpm. Media was carefully aspirated and the biofilm was measured by optical density at 600 nm. Twelve replicates were performed for each tested condition and the reported values are normalized to the control (RPMI-1640 media only). For the fungal biofilm disruption assays, 80 μL of RPMI-1640 was added to the plate, along with 1 μL of overnight cell culture. The cells were allowed to adhere to the plate for 90 minutes at 37° C. shaking at 350 rpm. Loosely bound cells were washed once with PBS and 80 μL of RPMI-1640 was added to the plate. The plate was further incubated for 24 hours at 37° C. shaking at 350 rpm. Media was carefully aspirated from the mature biofilm and 80 μL of RPMI-1640, or RPMI-1640 supplemented with the amino acid compound solution to be tested, was gently added to the plate. The plate was further incubated for 24 hours at 37° C. shaking at 350 rpm. Media was carefully aspirated and the biofilm was measured by optical density at 600 nm. Twelve replicates were performed for each tested condition and the reported values are normalized to the control (RPMI-1640 media only).

[5] = sustained inhibition, S. aureus, 1% amino acid, p<0.001
[6] = disruption, S. aureus, 1% amino acid, p<0.001, read-out: Reduce B Biofilm
[7] = disruption, S. aureus, 1% amino acid, p<0.001, read-out: Promote B Biofilm

SMILES: NC(CCCC(=O)O)C(=O)O (stereo not drawn) [2 Aminoadipic Acid, 2-aminoadipic acid]
- Reduce B Biofilm [1, 5]: ● (a single dot [i.e. ●] signifies minor effect (from about 10 to about 30% change))
- inhibition at 1 % [2, 6]: 10 to 30%
- effect on MRSA biofilms in inhibition and disruption assays [3]: both inhibited and disrupted
- anti-biofilm properties against bacterial biofilms [3]: reduction by less than twofold

SMILES: C[C@H](N)C(=O)O [Alanine, L-alanine]
- activation at 1 % [2, 7]: 10 to 30%
- effect on bacterial biofilm growth [3]: support (improve) bacterial biofilm growth

SMILES: N=C(N)NCCC[C@H](N)C(=O)O [Arginine, L-arginine]
- activation at 1 % [1]: 10 to 30%
- activation at 1 % ([2]; read-out: Promote B Biofilm): 10 to 30%
- effect on bacterial biofilm growth [3]: support (improve) bacterial biofilm growth

SMILES: NC(=O)C[C@H](N)C(=O)O [Asparagine, L-asparagine]
- activation at 1 % [1, 5]: 10 to 30%
- effect on bacterial biofilm growth [3]: support (improve) bacterial biofilm growth

SMILES: NCCC(=O)O [Beta-Alanine, Beta-alanine]
- Reduce B Biofilm [1, 5]: ● (a single dot [i.e. ●] signifies minor effect (from about 10 to about 30% change))
- anti-biofilm properties against bacterial biofilms [3]: reduction by less than twofold

SMILES: NC(=O)NCCC[C@H](N)C(=O)O [Citrulline, L-citrulline]
- activation at 1 % [1]: 10 to 30%
- activation at 1 % ([2]; read-out: Promote B Biofilm): 10 to 30%
- effect on bacterial biofilm growth [3]: support (improve) bacterial biofilm growth

SMILES: N[C@@H](CCSC[C@H](N)C(=O)O)C(=O)O [Cystathionine, L-cystathionine]
- inhibition at 0.2 % ([2]; disruption, S. aureus, 0.2% amino acid, p<0.001, read-out: Reduce B Biofilm): 10 to 30%

SMILES: NCC(=O)O [Glycine, L-glycine]
- activation at 1 % [1, 5]: 10 to 30%
- activation at 1 % [2, 7]: 10 to 30%
- effect on bacterial biofilm growth [3]: support (improve) bacterial biofilm growth

SMILES: N[C@@H](CCS)C(=O)O [Homocysteine, L-homocysteine]
- effect on C. albicans biofilms in inhibition and disruption assays ([4]; Tables 4 and 5): both inhibited and disrupted
- anti-biofilm properties against fungal biofilms ([4]; administered individually, in at least one of the two biofilm assays): reduction by less than two-fold

SMILES: O=C(O)[C@@H]1C[C@@H](O)CN1 [Hydroxyproline, Trans-4-hydroxy-L-proline]
- Reduce B Biofilm [1, 5]: ● (a single dot [i.e. ●] signifies minor effect (from about 10 to about 30% change))
- inhibition at 1 % ([2]; read-out: Reduce B Biofilm): 10 to 30%
- effect on MRSA biofilms in inhibition and disruption assays [3]: both inhibited and disrupted
- anti-biofilm properties against bacterial biofilms [3]: reduction by less than twofold

SMILES: CC[C@H](C)[C@H](N)C(=O)O [Isoleucine, L-isoleucine]
- activation at 1 % [2, 7]: 10 to 30%
- effect on bacterial biofilm growth [3]: support (improve) bacterial biofilm growth

SMILES: CC(C)C[C@H](N)C(=O)O [Leucine, L-leucine]
- activation at 1 % [1, 5]: 10 to 30%
- activation at 1 % [2, 7]: 10 to 30%
- effect on bacterial biofilm growth [3]: support (improve) bacterial biofilm growth

SMILES: NCCCC[C@H](N)C(=O)O [Lysine, L-lysine]
- activation at 1 % [1]: 10 to 30%
- activation at 1 % ([2]; read-out: Promote B Biofilm): 10 to 30%
- effect on bacterial biofilm growth [3]: support (improve) bacterial biofilm growth

SMILES: CSCC[C@H](N)C(=O)O [Methionine, L-methionine]
- activation at 1 % [1, 5]: 10 to 30%
- effect on bacterial biofilm growth [3]: support (improve) bacterial biofilm growth

SMILES: NCCC[C@H](N)C(=O)O [Ornithine, L-omithine]
- activation at 1 % [1, 5]: 10 to 30%
- activation at 1 % [2, 7]: 10 to 30%
- effect on bacterial biofilm growth [3]: support (improve) bacterial biofilm growth

SMILES: N[C@@H](Cc1ccccc1)C(=O)O [Phenylalanine, L-phenylalanine]
- activation at 1 % [1, 5]: 10 to 30%
- activation at 1 % [2, 7]: 10 to 30%
- effect on bacterial biofilm growth [3]: support (improve) bacterial biofilm growth

SMILES: NCCOP(=O)(O)O [Phosphoethanolamine, O-phosphoethanolamine]
- Reduce B Biofilm [1, 5]: ● (a single dot [i.e. ●] signifies minor effect (from about 10 to about 30% change))
- inhibition at 1 % [2, 6]: 10 to 30%
- effect on MRSA biofilms in inhibition and disruption assays [3]: both inhibited and disrupted
- anti-biofilm properties against bacterial biofilms [3]: reduction by less than twofold

SMILES: N[C@@H](CO)C(=O)O [Serine, L-serine]
- activation at 1 % [1, 5]: 10 to 30%
- activation at 1 % [2, 7]: 10 to 30%
- effect on bacterial biofilm growth [3]: support (improve) bacterial biofilm growth

SMILES: NCCS(=O)(=O)O [Taurine, L-taurine]
- activation at 1 % [1, 5]: 10 to 30%
- activation at 1 % [2, 7]: 10 to 30%
- effect on bacterial biofilm growth [3]: support (improve) bacterial biofilm growth

SMILES: C[C@@H](O)[C@H](N)C(=O)O [Threonine, L-threonine]
- activation at 1 % [1, 5]: 10 to 30%
- effect on bacterial biofilm growth [3]: support (improve) bacterial biofilm growth
